From patent US9988420B2, “Cytotoxic peptides and conjugates thereof” (priority 2013, dated 2018)

Experiments:
H526 cells = assay: In vitro cell killing assay of payloads (cell proliferation, Cell-Titer-Glo); type: cell-based; conditions: Homo sapiens, 120 h; NCI-H526 cells; Cell-Titer-Glo after five days; Table 2a; read-out: In vitro cell killing (IC50 (nM)) NCI-H526
HCC1954 cells = assay: as above; type: cell-based; conditions: Homo sapiens, 120 h; HCC1954 cells; Cell-Titer-Glo after five days; Table 2a; read-out: In vitro cell killing (IC50 (nM)) HCC1954
KU812 cells = assay: as above; type: cell-based; conditions: Homo sapiens, 120 h, Cell-Titer-Glo after five days
MDA-MB231 clone 16 cells = assay: as above; type: cell-based; conditions: Homo sapiens, 120 h; MDA-MB-231 clone 16 cells; Cell-Titer-Glo after five days
JimT1 cells = assay: as above; type: cell-based; conditions: Homo sapiens, JIMT-1, 120 h; JimT1 cells; Cell-Titer-Glo after five days; Table 2a; read-out: In vitro cell killing (IC50 (nM)) JimT1
Jurkat cells = assay: as above; type: cell-based; conditions: Homo sapiens, 120 h, Cell-Titer-Glo after five days
MDA-MB231 clone 40 cells = assay: as above; type: cell-based; conditions: Homo sapiens, 120 h; MDA-MB-231 clone 40 cells; Cell-Titer-Glo after five days
CMK11-5 cells = assay: as above; type: cell-based; conditions: Homo sapiens, 120 h; CMK-11-5 cells; Cell-Titer-Glo after five days
[1] = acidic condition

Row | Structure (SMILES) | IC50 (H526 cells) [nM] | IC50 (HCC1954 cells) [nM] | IC50 (KU812 cells) [nM] | IC50 (MDA-MB231 clone 16 cells) [nM] | IC50 (JimT1 cells) [nM] | IC50 (Jurkat cells) [nM] | IC50 (MDA-MB231 clone 40 cells) [nM] | IC50 (CMK11-5 cells) [nM] | hydrolysis of the ester [1]
1 | CC[C@H](C)[C@@H]([C@@H](CC(=O)N1CCC[C@H]1[C@H](OC)[C@@H](C)C(=O)N[C@H](C)[C@@H](O)c1ccccc1)OC)N(C)C(=O)[C@@H](NC(=O)[C@H]1N[C@@H]2CC[C@H]1C2)C(C)C [Compound 3, (1R,3S,4S)-N-((S)-1-(((3R,4S,5S)-1-((S)-2-((1R,2R)-3-(((1S,2R)-1-Hydroxy-1-phenylpropan-2-yl)amino)-1-methoxy-2-methyl-3-oxopropyl)pyrrolidin-1-yl)-3-methoxy-5-methyl-1-oxoheptan-4-yl)(methyl)amino)-3-methyl-1-oxobutan-2-yl)-2-azabicyclo[2.2.1]heptane-3-carboxamide] | 22 | 10.8 | 6.78 | 12.7 | 42.1 | 3.01 | 23.9 | 14.7 | –
2 | CCCCOP(=O)(O)[C@H](Cc1ccccc1)NC(=O)[C@H](C)[C@@H](OC)[C@@H]1CCCN1C(=O)C[C@@H](OC)[C@H]([C@@H](C)CC)N(C)C(=O)[C@@H](NC(=O)[C@@H]1[C@H]2CC[C@H](C2)N1C(=O)CCCCCN1C(=O)C=CC1=O)C(C)C [Compound 29, Butyl hydrogen ((R)-1-((2R,3R)-3-((S)-1-((3R,4S,5S)-4-((S)-2-((1R,3S,4S)-2-(6-(2,5-dioxo-2,5-dihydro-1H-pyrrol-1-yl)hexanoyl)-2-azabicyclo[2.2.1]heptane-3-carboxamido)-N,3-dimethylbutanamido)-3-methoxy-5-methylheptanoyl)pyrrolidin-2-yl)-3-methoxy-2-methylpropanamido)-2-phenylethyl)phosphonate] | – | – | – | – | – | – | – | – | prone to hydrolysis in acidic condition
3 | CC[C@H](C)[C@@H]([C@@H](CC(=O)N1CCC[C@H]1[C@H](OC)[C@@H](C)C(=O)N[C@@H](Cc1ccccc1)C(=O)NS(=O)(=O)CCCN=[N+]=[N-])OC)N(C)C(=O)[C@@H](NC(=O)[C@@H]1[C@H]2CC[C@H](C2)N1C)C(C)C [Compound 46, (1R,3S,4S)-N-((S)-1-(((3R,4S,5S)-1-((S)-2-((1R,2R)-3-(((S)-N-1-(3-Azidopropylsulfonamido)-1-oxo-3-phenylpropan-2-yl)amino)-1-methoxy-2-methyl-3-oxopropyl)pyrrolidin-1-yl)-3-methoxy-5-methyl-1-oxoheptan-4-yl)(methyl)amino)-3-methyl-1-oxobutan-2-yl)-2-methyl-2-azabicyclo[2.2.1]heptane-3-carboxamide] | 29.5 | 2.3 | 8.4 | 8.1 | 14.2 | 6.1 | 11.7 | 10.4 | –
